Data set [1] has as its system human fetal lung fibroblasts. The data set is described as follows: Fibroblast chemotaxis toward fibronectin (Boyden blindwell chamber). In kind it is cell-based. Here is the method:
Since the activity of a PDE4 inhibitor should be dependent on endogenous cyclic AMP levels, a study was designed to determine if endogenous prostaglandin production rendered cells susceptible to the effects of Ariflo. To accomplish this, human fetal lung fibroblasts were cultured and, after achieving confluence, were incubated for 60 minutes with and without indomethacin (2×10^−6 M) to inhibit cyclooxygenase. Fibroblasts were then trypsinized and placed in the upper portion of a Boyden blindwell chemotaxis chamber. Fibronectin, 20 μg/ml, was placed in the lower portion of the chamber as the chemoattractant. Indomethacin (2×10^−6 M) was added to the upper side of the chemotaxis chamber. […] In three separate experiments, the concentration of Ariflo required to inhibit chemotaxis by 50% was 4.9±2.5 μg/ml. In the presence of indomethacin, Ariflo inhibited chemotaxis only at the highest concentration tested 10 μg/ml reducing the response to 58.7±21.0% of control (p<005) compared to indomethacin. […] Since cyclooxygenase activity and prostaglandin production can be modulated by a variety of mediators present in an inflammatory milieu, fibroblasts in such a setting may be particularly sensitive to the inhibitory effects of Ariflo. Such an effect has therapeutic value in fibrotic disorders.

For data set [2] the following is noted: developed as an antidepressant; cited from earlier work.

Values after ≈ are worked out from the molar mass of the structure shown.

Consider `COc1ccc([C@]2(C#N)CC[C@@H](C(=O)O)CC2)cc1OC1CCCC1` [Ariflo, cis 4-cyano-4-(3-cyclopentyloxy-4-methoxyphenyl)cyclohexan-1-carboxylic acid], for which the activity at 10 µg/mL in data set [1] (Homo sapiens, Fibroblast, Ariflo 10 μg/ml in the presence of indomethacin 2×10^−6 M, compared to indomethacin, read-out: chemotaxis response, % of control) was 58.7 ± 21%. Further, in data set [1] (Homo sapiens, Fibroblast, control fibroblasts (no indomethacin), fibronectin 20 μg/ml as chemoattractant, three separate experiments, read-out: concentration required to inhibit chemotaxis by 50%), the IC50 was found to be 4.9 ± 2.5 µg/mL (≈ 14.3 µM). Besides, the “effect on chemotaxis (in words)” value in data set [1] (added to control fibroblasts) is “inhibited chemotaxis in a concentration dependent manner”.

As for `COc1ccc2c(c1)c(CC(=O)O)c(C)n2C(=O)c1ccc(Cl)cc1` [Indomethacin, indomethacin, reference compound], the “chemotaxis, % compared to control” value in data set [1] (indomethacin alone 2×10^−6 M, fibronectin 20 μg/ml) was 159±33%.

As for `COc1ccc(C2CNC(=O)C2)cc1OC1CCCC1` (centres unmarked) [rolipram], the “side effects in clinical studies” value in data set [2] was “has psychotropic activity and produces gastrointestinal effects, e.g., pyrosis, nausea and emesis”.

Values taken from US20030018071A1, “Method and compositions for treating fibrotic diseases” (priority 2002, published 2003).
